Assay results from patent US10604554B2, “Double-acylated GLP-1 derivatives” (Novo Nordisk A/S, priority 2012, dated 2020).
pEC50, pIC50: −log10 of the molar value.

Legend:
[1] = Pharmacokinetic (PK) study in rat; conditions: male, Sprague Dawley, in vivo, iv, 6 nmol/kg
[2] = biological target: T1, human GLP-1 receptor (Homo sapiens, UniProt P43220); test: In vitro potency (CRE luciferase; whole cells); assay type: cell-based; design: EC50/pM (ratio 1% HSA/0% HSA): unit not given here; conditions: for EC50/pM (ratio 1% HSA/0% HSA): ratio of EC50 at 1% HSA to EC50 at 0% HSA
T1 construct: expressed in transfected cells; host or cells: BHK cells, clone FCW467-12A/KZ10-1 (parent line BHKTS13), further transfected with CRE luciferase
T1 sequence (P43220 24-463): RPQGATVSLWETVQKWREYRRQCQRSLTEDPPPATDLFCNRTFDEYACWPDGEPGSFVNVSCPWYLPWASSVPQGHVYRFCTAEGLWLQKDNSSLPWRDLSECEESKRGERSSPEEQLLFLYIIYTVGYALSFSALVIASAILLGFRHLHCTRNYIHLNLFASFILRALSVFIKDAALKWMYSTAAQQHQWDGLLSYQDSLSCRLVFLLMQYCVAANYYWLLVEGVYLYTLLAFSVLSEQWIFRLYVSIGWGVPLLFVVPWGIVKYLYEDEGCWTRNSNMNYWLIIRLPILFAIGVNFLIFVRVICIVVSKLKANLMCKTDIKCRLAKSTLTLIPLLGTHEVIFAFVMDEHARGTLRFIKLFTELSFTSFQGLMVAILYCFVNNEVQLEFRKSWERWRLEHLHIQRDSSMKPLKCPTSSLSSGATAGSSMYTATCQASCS
In short: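 Reporter: CRE-luciferase in BHK cells stably expressing human GLP-1R, 5×10^3 cells/well; compounds tested in buffer containing 0% or 1% HSA.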

[3] = Pharmacokinetic (PK) study in minipig; conditions: male, Göttingen, in vivo, iv
Method: The purpose of this study is to determine the protraction in vivo of the GLP-1 derivatives after i.v. administration to minipigs, i.e. the prolongation of their time of action. This is done in a pharmacokinetic (PK) study, where the terminal half-life of the derivative in question is determined. By terminal half-life is generally meant the period of time it takes to halve a certain plasma concentration, measured after the initial distribution phase.
Study A: Male Göttingen minipigs were obtained from Ellegaard Göttingen Minipigs (Dalmose, Denmark) approximately 7-14 months of age and weighing from approximately 16-35 kg were used in the studies. The minipigs were housed individually and fed restrictedly once or twice daily with SDS minipig diet (Special Diets Services, Essex, UK). After at least 2 weeks of acclimatisation two permanent central venous catheters were implanted in vena cava caudalis or cranialis in each animal. The animals were allowed 1 week recovery after the surgery, and were then used for repeated pharmacokinetic studies with a suitable wash-out period between successive GLP-1 derivative dosings.
The animals were fasted for approximately 18 h before dosing and from 0 to 4 h after dosing, but had ad libitum access to water during the whole period.
The GLP-1 derivatives were dissolved in 50 mM sodium phosphate, 145 mM sodium chloride, 0.05% tween 80, pH 7.4 to a concentration of usually from 20-60 nmol/ml. […] Blood samples (for example 0.8 ml) were collected in EDTA buffer (8 mM) and then centrifuged at 4° C. and 1942 G for 10 minutes.
Study B: Male Göttingen minipigs were obtained from Ellegaard Göttingen Minipigs (Dalmose, Denmark) approximately 5 months of age and weighing from approximately 9 kg were used in the studies. The minipigs were housed in pens with straw as bedding, six together in each pen and fed restrictedly once or twice daily with Altromin 9023 minipig diet (Chr. Petersen A/S, DK-4100 Ringsted) or Standard SMP(E) minipig diet (Special Diet Services (SDS), UK). The pigs were used for repeated pharmacokinetic studies with a suitable wash-out period between successive GLP-1 derivative dosings.
The GLP-1 derivatives were dissolved in 50 mM sodium phosphate, 145 mM sodium chloride, 0.05% tween 80, pH 7.4 to a concentration of usually from 20-60 nmol/ml. Intravenous injections (the volume corresponding to usually 2 nmol/kg, for example 0.1 ml/kg) of the compounds were given as intravenous injections via a Venflon inserted in an ear vein, while they are placed unanaesthetised in a sling. The dose volume was 0.1 ml/kg, and blood was sampled at predefined time points for up till 17 days post dosing (samples was taken with syringe from a jugular vein).
Individual plasma concentration-time profiles were analyzed by a non-compartmental model in Phoenix WinNonLin ver. […] (Pharsight Inc., Mountain View, Calif., USA), and the resulting terminal half-lives (harmonic mean) determined.

[4] = biological target: T1, human GLP-1 receptor; test: GLP-1 receptor binding (SPA, displacement of 125I-GLP-1); conditions: Receptor binding affinity IC50 (low HSA), 0.001% HSA (low albumin)
In short: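 Tracer [125I]-GLP-1(7-36)NH2 at 0.06 nM final competed on hamster stably transfected cell membranes captured by WGA SPA beads; 120 min, 30 °C, scintillation count.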

With `CC[C@H](C)[C@H](NC(=O)[C@H](Cc1ccccc1)NC(=O)[C@H](CCC(=O)O)NC(=O)[C@H](CCCCNC(=O)[C@@H](N)CCCCNC(=O)[C@@H](N)CCCCNC(=O)CC[C@H](NC(=O)CCCCCCCCCCCOc1ccc(C(=O)O)cc1)C(=O)O)NC(=O)[C@H](C)NC(=O)[C@H](C)NC(=O)[C@H](CCC(N)=O)NC(=O)CNC(=O)[C@H](CCC(=O)O)NC(=O)[C@H](CC(C)C)NC(=O)[C@H](Cc1ccc(O)cc1)NC(=O)[C@H](CO)NC(=O)[C@H](CO)NC(=O)[C@@H](NC(=O)[C@H](CC(=O)O)NC(=O)[C@H](CO)NC(=O)[C@@H](NC(=O)[C@H](Cc1ccccc1)NC(=O)[C@@H](NC(=O)CNC(=O)[C@H](CCC(=O)O)NC(=O)C(C)(C)NC(=O)[C@@H](N)Cc1c[nH]cn1)[C@@H](C)O)[C@@H](C)O)C(C)C)C(=O)N[C@@H](C)C(=O)N[C@@H](Cc1c[nH]c2ccccc12)C(=O)N[C@@H](CC(C)C)C(=O)N[C@H](C(=O)N[C@@H](CCC(N)=O)C(=O)NCC(=O)N[C@@H](CCCNC(=N)N)C(=O)N[C@@H](CCCCNC(=O)[C@@H](N)CCCCNC(=O)[C@@H](N)CCCCNC(=O)CC[C@H](NC(=O)CCCCCCCCCCCOc1ccc(C(=O)O)cc1)C(=O)O)C(=O)O)C(C)C` [Example 9, N^ε26-[(2S)-2-amino-6-[[(2S)-2-amino-6-[[(4S)-4-carboxy-4-[12-(4-carboxyphenoxy)dodecanoylamino]butanoyl]amino]hexanoyl]amino]hexanoyl], N^ε37-[(2S)-2-amino-6-[[(2S)-2-amino-6-[[(4S)-4-carboxy-4-[12-(4-carboxyphenoxy)dodecanoylamino]butanoyl]amino]hexanoyl]amino]hexanoyl]-[Aib^8,Gln^34,Lys^37]-GLP-1-(7-37)-peptide] the half-life [1] was 20 h, the “EC50/pM (ratio 1% HSA/0% HSA)” value [2] was 72 and the half-life [3] was 72 h.

For `CC[C@H](C)[C@H](NC(=O)[C@H](Cc1ccccc1)NC(=O)[C@H](CCC(=O)O)NC(=O)[C@H](CCCCNC(=O)[C@@H](N)CCCCNC(=O)COCCOCCNC(=O)COCCOCCNC(=O)CC[C@H](NC(=O)CCCCCCCCCCOc1ccc(C(=O)O)cc1)C(=O)O)NC(=O)[C@H](C)NC(=O)[C@H](C)NC(=O)[C@H](CCC(N)=O)NC(=O)[C@H](CCC(=O)O)NC(=O)[C@H](CCC(=O)O)NC(=O)[C@H](CC(C)C)NC(=O)[C@H](Cc1ccc(O)cc1)NC(=O)[C@H](CO)NC(=O)[C@H](CO)NC(=O)[C@@H](NC(=O)[C@H](CC(=O)O)NC(=O)[C@H](CO)NC(=O)[C@@H](NC(=O)[C@H](Cc1ccccc1)NC(=O)[C@@H](NC(=O)CNC(=O)[C@H](CCC(=O)O)NC(=O)C(C)(C)NC(=O)[C@@H](N)Cc1c[nH]cn1)[C@@H](C)O)[C@@H](C)O)C(C)C)C(=O)N[C@@H](C)C(=O)N[C@@H](Cc1c[nH]c2ccccc12)C(=O)N[C@@H](CC(C)C)C(=O)N[C@H](C(=O)N[C@@H](CCCNC(=N)N)C(=O)NCC(=O)N[C@@H](CCCNC(=N)N)C(=O)N[C@@H](CCCCNC(=O)[C@@H](N)CCCCNC(=O)COCCOCCNC(=O)COCCOCCNC(=O)CC[C@H](NC(=O)CCCCCCCCCCOc1ccc(C(=O)O)cc1)C(=O)O)C(=O)O)C(C)C` [Example 22], the half-life [1] was 15 h, the pEC50 ([2]; In vitro potency (CRE luciferase) EC50 (0% HSA), BHK cells, 0% HSA) was 11.26 and the “EC50/pM (ratio 1% HSA/0% HSA)” value [2] was 13. For the same molecule, the pIC50 [4] was 9.59 and the half-life [3] was 59 h.
